# Like-named read-outs stand apart in the source and are kept apart here.
# Experiments:
# HEK-293T-ACE2^h cells = assay: MTT cytotoxicity assay on host cells (4 h); type: cell-based, human; conditions: for CC0 (maximum nontoxic concentration) / TC50 (concentration reducing cell viability by 50%): MTT, 4 h
# [1] = biological target: SARS-CoV-2 spike RBD protein (Severe acute respiratory syndrome coronavirus 2, UniProt P0DTC2); assay: biochemical; type: binding
# Beas-2B cells = assay: MTT cytotoxicity on human normal cell line Beas-2B (24 h); type: cell-based; conditions: for IC50: Homo sapiens, BEAS-2B, 24 h, read-out: IC50 Values of Human Normal Cell Lines, Beas-2B
# LO2 cells = assay: MTT cytotoxicity on human normal cell line LO2 (24 h); type: cell-based; conditions: for IC50: Homo sapiens, L02, 24 h, read-out: IC50 Values of Human Normal Cell Lines, LO2
# HEK 293 cells = assay: MTT cytotoxicity on human normal cell line HEK 293 (24 h); type: cell-based; conditions: for IC50: Homo sapiens, HEK293, 24 h, read-out: IC50 Values of Human Normal Cell Lines, HEK 293
# SARS-CoV-2 pseudovirus [2] = system: SARS-CoV-2 pseudovirus
# SARS-CoV-2 pseudovirus [3] = assay: microbe, parasite or virus in culture; conditions: Severe acute respiratory syndrome-related coronavirus, read-out: IC50 (inhibition of pseudovirus entry into host cells)
Structure (SMILES),CC0 (maximum nontoxic concentration) (HEK-293T-ACE2^h cells),TC50 (concentration reducing cell viability by 50%) (HEK-293T-ACE2^h cells),Kd [1],IC50 (Beas-2B cells),IC50 (LO2 cells),IC50 (HEK 293 cells),SI (ratio of TC50 to IC50) (SARS-CoV-2 pseudovirus [2]),IC50 (SARS-CoV-2 pseudovirus [2]; read-out: IC50 (inhibition of pseudovirus entry into host cells)),IC50 (SARS-CoV-2 pseudovirus [3]),cytotoxicity to the host cells (in words) (HEK-293T-ACE2^h cells; 500 μM),binding signal [1],"cytotoxic effect (in words), Beas-2B (Beas-2B cells; tested dose of 500 μM)","cytotoxic effect (in words), LO2 (LO2 cells; tested dose of 500 μM)","cytotoxic effect (in words), HEK 293 (HEK 293 cells; tested dose of 500 μM)"
"O=c1c(O)c(-c2ccc(O)cc2)oc2cc(O)cc(O)c12 [compound 14, Kaempferol]",200 µM,>200 µM,18.5 ± 5.49 µM,> 200 µM,> 200 µM,> 200 µM,>5.77,34.6 ± 7.69 µM,< 50 µM,–,–,–,–,–
"O=c1c(O)c(-c2ccc(O)c(O)c2)oc2cc(O)cc(O)c12 [compound 15, Quercetin]",300 µM,>500 µM,11.2 ± 3.85 µM,> 500 µM,> 500 µM,> 500 µM,–,–,–,–,–,–,–,–
"O=c1c(O)c(-c2cc(O)c(O)c(O)c2)oc2cc(O)cc(O)c12 [compound 16, Myricetin]",300 µM,>500 µM,–,> 500 µM,> 500 µM,> 500 µM,–,–,–,did not demonstrate any cytotoxicity,0.60 nm,did not show any significant cytotoxic effect,did not show any significant cytotoxic effect,did not show any significant cytotoxic effect
"Oc1cc(O)c2c(c1)O[C@H](c1ccc(O)c(O)c1)[C@@H](O)[C@@H]2c1c(O)cc(O)c2c1O[C@H](c1ccc(O)c(O)c1)[C@H](O)C2 [compound 30, Procyanidin B-4]",300 µM,>500 µM,–,> 500 µM,> 500 µM,> 500 µM,>3.30,–,151 ± 28.1 µM,–,–,–,–,–
"Oc1cc(O)c2c(c1)O[C@H](c1ccc(O)c(O)c1)[C@H](O)[C@H]2c1c(O)cc(O)c2c1O[C@H](c1ccc(O)c(O)c1)[C@H](O)[C@H]2c1c(O)cc(O)c2c1O[C@H](c1ccc(O)c(O)c1)[C@H](O)C2 [compound 31, Procyanidin C-1]",300 µM,>500 µM,–,> 500 µM,> 500 µM,> 500 µM,>2.90,–,173 ± 20.7 µM,–,–,–,–,–

# From paper PMC9862759 (Viruses, 2023)
